Data on 24 compounds can be found in PubChem BioAssay AID330 (DTP/NCI, 2004).

In the test the test system is P388 leukemia ip, CD2F1 mice, survival T/C. Nature of the test: NCI In Vivo Anticancer Drug Screen. Data for tumor model P388 Leukemia (intraperitoneal) in CD2F1 (CDF1) mice. The note with it: endpoint: median survival time, higher = longer survival. In outline: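 Mice carrying the transplanted tumor received test compound or vehicle. Survival was recorded in each group, and the value is the treated-group measurement divided by that of the vehicle-treated control group.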

[1] abbreviates: dose: 1.56 mg/kg/injection, schedule: Q01DX009 (ip), vehicle: saline.
[2] abbreviates: dose: 6.25 mg/kg/injection, schedule: Q01DX009 (ip), vehicle: saline.
[3] abbreviates: dose: 60.0 mg/kg/injection, schedule: Q01DX005 (ip), vehicle: saline with Tween-80.
[4] abbreviates: dose: 120.0 mg/kg/injection, schedule: Q01DX005 (ip), vehicle: saline with Tween-80.
Where [5] appears, read: dose: 240.0 mg/kg/injection, schedule: Q01DX005 (ip), vehicle: saline with Tween-80.
Where [6] appears, read: dose: 50.0 mg/kg/injection, schedule: Q01DX009 (ip), vehicle: Klucel (hydroxypropylcellulose) (HPC).
Setting [7] is: dose: 6.25 mg/kg/injection, schedule: Q01DX009 (ip), vehicle: Klucel (hydroxypropylcellulose) (HPC).
The mark [8] stands for this setting: dose: 12.5 mg/kg/injection, schedule: Q01DX009 (ip), vehicle: Klucel (hydroxypropylcellulose) (HPC).
The mark [9] stands for this setting: dose: 25.0 mg/kg/injection, schedule: Q01DX009 (ip), vehicle: Klucel (hydroxypropylcellulose) (HPC).
The mark [10] stands for this setting: dose: 50.0 mg/kg/injection, schedule: Q01DX005 (ip), vehicle: Klucel (hydroxypropylcellulose) (HPC).
The mark [11] stands for this setting: dose: 100.0 mg/kg/injection, schedule: Q01DX005 (ip), vehicle: Klucel (hydroxypropylcellulose) (HPC).
The mark [12] stands for this setting: dose: 200.0 mg/kg/injection, schedule: Q01DX005 (ip), vehicle: Klucel (hydroxypropylcellulose) (HPC).
The mark [13] stands for this setting: dose: 50.0 mg/kg/injection, schedule: Q01DX009 (ip), vehicle: suspension in saline.
[14] abbreviates: dose: 100.0 mg/kg/injection, schedule: Q01DX009 (ip), vehicle: suspension in saline.
[15] abbreviates: dose: 50.0 mg/kg/injection, schedule: Q01DX005 (ip), vehicle: saline with Tween-80.
The mark [16] stands for this setting: dose: 100.0 mg/kg/injection, schedule: Q01DX005 (ip), vehicle: saline with Tween-80.
The mark [17] stands for this setting: dose: 200.0 mg/kg/injection, schedule: Q01DX005 (ip), vehicle: saline with Tween-80.
[18] abbreviates: dose: 12.5 mg/kg/injection, schedule: Q01DX009 (ip), vehicle: saline with Tween-80.

Values joined by “and” are separate entries in the source; they are usually repeats but may differ in a detail not shown here. Identical values can stand only once. Toxic doses and inconclusive results are not listed.

As to `O=C(CC(O)CCc1ccc(O)c(O)c1)O[C@H]1Cc2c(O)cc(O)cc2O[C@H]1c1ccc(O)c(O)c1` (stereo not given in full), the T/C by setting is: (dose: 20.0 mg/kg/injection, schedule: Q01DX005 (ip), vehicle: saline with Tween-80) 105 % of control; (dose: 40.0 mg/kg/injection, schedule: Q01DX005 (ip), vehicle: saline with Tween-80) 105 % of control; (dose: 80.0 mg/kg/injection, schedule: Q01DX005 (ip), vehicle: saline with Tween-80) 100 % of control.

As to `S=P(N1CC1)(N1CC1)N1CC1.[Cl-].[Cl-].[NH2-].[NH2-].[Pt+4]`, the T/C reads like this: (dose: 0.78 mg/kg/injection, schedule: Q01DX009 (ip), vehicle: saline) 104 % of control; under setting [1], 113 % of control and 101 % of control; under setting [2], 178 % of control and 150 % of control and 166 % of control; (dose: 25.0 mg/kg/injection, schedule: Q01DX009 (ip), vehicle: saline) 88 % of control.

Regarding `Cc1ncc(CO)c(C2NC(C(=O)O)CS2)c1O` (stereo not given), the T/C by setting is: under setting [3], 98 % of control; under setting [4], 98 % of control; under setting [5], 100 % of control.

For `CCCCCCCCCCCOCC(=O)O`, the T/C reads like this: under setting [6], 98 % of control; (dose: 100.0 mg/kg/injection, schedule: Q01DX009 (ip), vehicle: Klucel (hydroxypropylcellulose) (HPC)) 92 % of control.

With `CCOC(=O)Nc1nc2ccc(NC(C)=O)cc2s1`, the T/C reads like this: under setting [7], 104 % of control; under setting [8], 105 % of control; under setting [9], 102 % of control; under setting [6], 96 % of control.

Regarding `O=P1(N2CCOCC2)OC(c2ccccc2)=CCN1c1ccc(Cl)cc1` (stereo not given), the T/C reads like this: under setting [10], 104 % of control; under setting [11], 100 % of control; under setting [12], 95 % of control.

With `COP(=O)(N/N=C/C(=O)O)OC`, the T/C reads like this: (dose: 12.5 mg/kg/injection, schedule: Q01DX009 (ip), vehicle: water) 104 % of control; (dose: 25.0 mg/kg/injection, schedule: Q01DX009 (ip), vehicle: water) 103 % of control; (dose: 50.0 mg/kg/injection, schedule: Q01DX009 (ip), vehicle: water) 101 % of control; (dose: 100.0 mg/kg/injection, schedule: Q01DX009 (ip), vehicle: water) 96 % of control; (dose: 200.0 mg/kg/injection, schedule: Q01DX009 (ip), vehicle: water) 95 % of control.

In the case of `Cc1cc(NC(=S)SCc2ccc3c(c2)OCO3)c([N+](=O)[O-])cc1C`, the T/C is, setting by setting: under setting [13], 98 % of control; under setting [14], 100 % of control; (dose: 200.0 mg/kg/injection, schedule: Q01DX009 (ip), vehicle: suspension in saline) 108 % of control.

Consider `CN(CC(=O)C(O)C(O)C(O)CO)c1ccccc1` (stereo not given), for which the T/C was 99 % of control (dose: 50.0 mg/kg/injection, schedule: Q01DX005 (ip), vehicle: saline); 100 % of control (dose: 100.0 mg/kg/injection, schedule: Q01DX005 (ip), vehicle: saline); 100 % of control (dose: 200.0 mg/kg/injection, schedule: Q01DX005 (ip), vehicle: saline).

For `CCOC1(C(C)O)CC(c2ccccc2)=NO1` (stereo not given), the T/C by setting is: under setting [3], 108 % of control; under setting [4], 101 % of control; under setting [5], 100 % of control.

Turning to `COC(=O)c1cn(NS(=O)(=O)c2ccc(OC)cc2)cc1C(=O)OC`, the T/C runs as follows: under setting [3], 96 % of control; under setting [4], 101 % of control; under setting [5], 104 % of control.

Take `COc1ccc2[nH]c(C)cc2c1CN`: the T/C (dose: 3.12 mg/kg/injection, schedule: Q01DX009 (ip), vehicle: saline) was 113 % of control; the T/C under setting [2] was 101 % of control; the T/C (dose: 12.5 mg/kg/injection, schedule: Q01DX009 (ip), vehicle: saline) is 112 % of control.

On to `O=[N+]([O-])c1ccc(CS(=O)(=O)c2cccs2)o1`, for which the T/C was 106 % of control under setting [13] and 100 % of control under setting [14].

Regarding `O=C(N/N=c1/sc2ccccc2n1Cc1ccccc1)c1ccncc1`, the T/C was 106 % of control under setting [7], 100 % of control under setting [8] and 89 % of control under setting [9].

Regarding `CCC(=O)NN(Cn1c(=S)sc2ccccc21)Cn1c(=S)sc2ccccc21`, the T/C by setting is: under setting [10], 99 % of control; under setting [11], 89 % of control; under setting [12], 93 % of control.

Take `C=C(C)C(=O)Oc1cccccc1=O`: the T/C was 102 % of control under setting [15], 106 % of control under setting [16] and 114 % of control under setting [17].

In the case of `COC(=O)C(=O)C(C(=O)C=C(C)C)c1nc2n(c1O)C(=N)N=N2` (stereo not given), the T/C runs as follows: (dose: 60.0 mg/kg/injection, schedule: Q01DX005 (ip), vehicle: saline) 116 % of control; (dose: 120.0 mg/kg/injection, schedule: Q01DX005 (ip), vehicle: saline) 107 % of control; (dose: 240.0 mg/kg/injection, schedule: Q01DX005 (ip), vehicle: saline) 104 % of control.

For `C=C1C(=O)OC2CC(C)C3CC(O)OC(O)C3(C)CC12` (stereo not given), the T/C reads like this: under setting [1], 115 % of control; (dose: 3.12 mg/kg/injection, schedule: Q01DX009 (ip), vehicle: saline with Tween-80) 102 % of control; (dose: 3.13 mg/kg/injection, schedule: Q01DX009 (ip), vehicle: saline) 117 % of control; (dose: 6.25 mg/kg/injection, schedule: Q01DX009 (ip), vehicle: saline with Tween-80) 107 % of control; under setting [18], 99 % of control and 113 % of control.

Consider `O=C1c2ccccc2C(=O)N1CCNCCN1C(=O)c2ccccc2C1=O`, for which the T/C is 103 % of control under setting [3], 93 % of control under setting [4] and 93 % of control under setting [5].

Regarding `COc1ccc(S(=O)(=O)N/N=C\c2cccc([N+](=O)[O-])c2O)c(OC)c1OC`, the T/C was 100 % of control under setting [15], 102 % of control under setting [16] and 96 % of control under setting [17].

In the case of `CC1=CCC2C3(C)C=CC(=O)C(C)(C)C3CC3OC(=O)C=C1C32C` (stereo not given), the T/C is 102 % of control (dose: 0.75 mg/kg/injection, schedule: Q01DX009 (ip), vehicle: Klucel (hydroxypropylcellulose) (HPC)); 98 % of control and 102 % of control (dose: 1.5 mg/kg/injection, schedule: Q01DX009 (ip), vehicle: Klucel (hydroxypropylcellulose) (HPC)); 101 % of control (dose: 3.0 mg/kg/injection, schedule: Q01DX009 (ip), vehicle: Klucel (hydroxypropylcellulose) (HPC)); 97 % of control (dose: 6.0 mg/kg/injection, schedule: Q01DX009 (ip), vehicle: Klucel (hydroxypropylcellulose) (HPC)); 100 % of control and 97 % of control (dose: 12.0 mg/kg/injection, schedule: Q01DX009 (ip), vehicle: Klucel (hydroxypropylcellulose) (HPC)); 100 % of control (dose: 24.0 mg/kg/injection, schedule: Q01DX009 (ip), vehicle: Klucel (hydroxypropylcellulose) (HPC)).

Regarding `CCOC(=O)CC1(O)CCC2C3CC=C4CC(OC5CCCCO5)CCC4(C)C3CCC21C` (stereo not given), the T/C by setting is: (dose: 3.0 mg/kg/injection, schedule: Q01DX009 (ip), vehicle: saline with Tween-80) 101 % of control; (dose: 6.0 mg/kg/injection, schedule: Q01DX009 (ip), vehicle: saline with Tween-80) 99 % of control; (dose: 12.0 mg/kg/injection, schedule: Q01DX009 (ip), vehicle: saline with Tween-80) 100 % of control; under setting [18], 88 % of control.

As to `COC(=O)c1nnn(-c2cc(Cl)ccc2Cl)c1C(=O)c1ccc(Cl)c(Cl)c1`, the T/C by setting is: under setting [3], 99 % of control; under setting [4], 96 % of control; under setting [5], 87 % of control.

In the case of `Cc1cc2c(cc1S(=O)(=O)O)C1C(C3C2C2(Cl)C(Cl)=C(Cl)C3(Cl)C2(Cl)Cl)C2(Cl)C(Cl)=C(Cl)C1(Cl)C2(Cl)Cl` (stereo not given), the T/C is, setting by setting: (dose: 50.0 mg/kg/injection, schedule: Q01DX009 (ip), vehicle: saline) 101 % of control; (dose: 100.0 mg/kg/injection, schedule: Q01DX009 (ip), vehicle: saline) 92 % of control; (dose: 200.0 mg/kg/injection, schedule: Q01DX009 (ip), vehicle: saline) 92 % of control.
